Consider two molecules from PMC10303200 (ACS Central Science, 2023).

In one assay the target is Siglec-7. The settings on record: ITC; cited from earlier work.
The next assay addresses T1, CD22-Fc (Homo sapiens, UniProt P20273).
T1 construct: His6 (C); made in house; host or cells: wild-type CHO cells
T1 sequence (P20273 20-332 limits assumed): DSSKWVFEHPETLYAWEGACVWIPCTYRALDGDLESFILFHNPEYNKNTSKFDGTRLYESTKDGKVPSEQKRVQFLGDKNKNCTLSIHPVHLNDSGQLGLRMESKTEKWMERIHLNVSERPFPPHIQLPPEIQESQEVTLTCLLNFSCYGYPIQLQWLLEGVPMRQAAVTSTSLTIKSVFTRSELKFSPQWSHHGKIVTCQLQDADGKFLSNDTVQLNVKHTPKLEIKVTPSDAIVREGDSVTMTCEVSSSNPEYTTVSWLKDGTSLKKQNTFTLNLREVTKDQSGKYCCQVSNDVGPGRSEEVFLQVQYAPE
Kind of assay: COIN-CaR-nMS. Particulars: N-glycan natural libraries and G21; pH 6.9. The format is binding.

The target in assay [1] is SNA (Sambucus nigra agglutinin) (Sambucus nigra, UniProt Q41358). Kind of assay: biochemical. The format is binding. Particulars: for Kd: Kd (COIN-CaR-nMS).
A further assay deals with SNA (Sambucus nigra, UniProt Q41358). The experiment in a line: biochemical. Particulars: apparent Kd by ITC (Literature). In kind it is binding.
The next assay concerns the target Sig7-Fc (Homo sapiens, UniProt Q9Y286). The experiment in a line: COIN-CaR-nMS. The format is binding. On the set-up: Siglec 7-Fc (Sig7-Fc, residue 1–345, MW 150 kDa); His6 (C); made in house; host or cells: wild-type CHO cells.
Assay [2] has as its system GFP-encoding SARS-CoV-2 pseudotyped virus, ACE2+ HEK293 cells. In kind it is cell-based.
Assay [3] concerns SARS-CoV-2 (hCoV-19/Canada/ON-VIDO-01/2020), ACE2+ HEK293 cells. In kind it is cell-based.

Values joined by “and” are separate entries in the source; they are usually repeats but may differ in a detail not shown here. Equal entries are not always repeated. Where two headings read alike, the source gives them in different places.

Chain of Sig7-Fc (Q9Y286 19-345): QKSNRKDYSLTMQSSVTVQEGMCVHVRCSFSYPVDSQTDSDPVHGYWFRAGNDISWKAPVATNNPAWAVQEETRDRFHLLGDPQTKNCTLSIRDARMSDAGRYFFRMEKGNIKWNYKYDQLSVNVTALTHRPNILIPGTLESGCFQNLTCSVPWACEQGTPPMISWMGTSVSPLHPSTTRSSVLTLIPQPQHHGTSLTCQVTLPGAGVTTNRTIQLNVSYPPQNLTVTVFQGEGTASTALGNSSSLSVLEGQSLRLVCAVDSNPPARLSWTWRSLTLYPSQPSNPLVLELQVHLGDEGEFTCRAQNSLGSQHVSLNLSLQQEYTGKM
Chain of SNA (Sambucus nigra agglutinin) (Q41358 309-570 limits assumed): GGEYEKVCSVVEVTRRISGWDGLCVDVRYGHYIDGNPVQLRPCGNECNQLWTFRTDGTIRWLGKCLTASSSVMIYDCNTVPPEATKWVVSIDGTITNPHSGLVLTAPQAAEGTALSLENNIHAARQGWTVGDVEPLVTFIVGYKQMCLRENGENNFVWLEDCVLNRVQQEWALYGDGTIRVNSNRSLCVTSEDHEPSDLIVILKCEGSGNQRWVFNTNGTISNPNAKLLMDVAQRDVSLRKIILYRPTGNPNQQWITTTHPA
Chain of SNA (Sambucus nigra agglutinin) (Q41358 29-289 partner limits assumed): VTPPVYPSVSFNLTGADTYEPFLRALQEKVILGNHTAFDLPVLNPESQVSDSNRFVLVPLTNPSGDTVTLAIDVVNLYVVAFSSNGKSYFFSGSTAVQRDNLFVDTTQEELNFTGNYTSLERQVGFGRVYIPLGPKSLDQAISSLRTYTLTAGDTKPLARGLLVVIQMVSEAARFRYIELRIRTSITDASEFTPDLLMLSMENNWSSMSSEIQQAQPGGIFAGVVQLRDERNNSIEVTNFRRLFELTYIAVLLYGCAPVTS
Chain of SNA (Q41358 309-570 limits assumed): as the sequence (Q41358 309-570 limits assumed) above
Chain of SNA (Q41358 29-289 partner limits assumed): as the sequence (Q41358 29-289 partner limits assumed) above

Turning to `CC(=O)N[C@H]1[C@H]([C@H](O)[C@H](O)CO)O[C@@](OC[C@H]2O[C@@H](O[C@H]3[C@H](O)[C@@H](O)C(O)O[C@@H]3CO)[C@H](O)[C@@H](O)[C@H]2O)(C(=O)O)C[C@@H]1O` (stereo partly drawn) [Glycan G21, α-D-Neu5Ac-(2→6)-β-D-Gal-(1→4)-D-Glc], the Kd on Siglec-7 was 240000 nM; at CD22-Fc it was 40000 nM; in assay [1], 1600 ± 400 nM; in assay [1] (two ligands), 2000 nM and 1500 nM and 3300 nM and 1700 nM and 1600 nM and 1800 nM; on SNA, 1980 nM and 2000 nM; on Sig7-Fc (G21 0.5 μM and G29 30 μM, read-out: Kd (COIN-CaR-nMS), two ligands), 284000 ± 70000 nM. The Kd on Sig7-Fc (G21 1.0 μM and G29 30 μM, read-out: Kd (COIN-CaR-nMS), two ligands) worked out at 239000 ± 50000 nM; at Sig7-Fc (G21 5 μM and G29 30 μM, read-out: Kd (COIN-CaR-nMS), two ligands) it was 366000 ± 10000 nM; at Sig7-Fc (G21 10 μM and G29 30 μM, read-out: Kd (COIN-CaR-nMS), two ligands), 249000 ± 20000 nM; at Sig7-Fc (N-glycan natural libraries and purified oligosaccharides, pH 6.9, read-out: Kd), 236000 nM. The “fold weaker ligand than G23” value in assay [1] turned out to be 3 fold.

In the case of `O=C1N[C@@H]2[C@@H](O)[C@@H](O)[C@H](O)[C@@H](CO)N2C1=O` [kifunensine], the “infection by pseudotyped virus (%GFP+ cells)” value in assay [2] is “decreased significantly”. Further, in assay [3], the “infection by authentic virus (viral titers, PFU)” value was “concentration-dependent decrease in infection”.
